Assay results: the supplement of paper PMC10307832

Columns and labels:
Assay in all cases: relative viability (nuclei count vs DMSO), 5 days (fraction); higher = more cells survive
201T = system: 201T
How it was run: (§1)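 Lung cancer cell lines, seeded in 1536-well plates, were treated the following day by pin tool with a single drug or with five library-drug doses (not always all listed) in √10 steps on top of a fixed anchor-drug dose. Cells were fixed and nuclei stained in one step after 5 days, and nuclei were counted. Relative viability is the nuclei count for treated wells divided by that for vehicle wells, reported as medians of duplicate plates.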

COR-L23 = system: COR-L23
How it was run: as §1

EPLC-272H = system: EPLC-272H
How it was run: as §1

H3255 = system: H3255
How it was run: as §1

HCC-15 = system: HCC-15
How it was run: as §1

LOU-NH91 = system: LOU-NH91
How it was run: as §1

NCI-H1563 = system: NCI-H1563
How it was run: as §1

NCI-H1650 = system: NCI-H1650
How it was run: as §1

NCI-H1734 = system: NCI-H1734
How it was run: as §1

NCI-H1793 = system: NCI-H1793
How it was run: as §1

NCI-H2023 = system: NCI-H2023
How it was run: as §1

NCI-H2170 = system: NCI-H2170
How it was run: as §1

NCI-H2347 = system: NCI-H2347
How it was run: as §1

NCI-H2405 = system: NCI-H2405
How it was run: as §1

NCI-H3122 = system: NCI-H3122
How it was run: as §1

NCI-H322M = system: NCI-H322M
How it was run: as §1

NCI-H441 = system: NCI-H441
How it was run: as §1

NCI-H520 = system: NCI-H520
How it was run: as §1

NCI-H647 = system: NCI-H647
How it was run: as §1

PC-14 = system: PC-14
How it was run: as §1

SW 900 = system: SW 900
How it was run: as §1

UMC-11 = system: UMC-11
How it was run: as §1

## O=c1cc(-c2cccc3c2Sc2ccccc2S3)oc(N2CCOCC2)c1 + Cc1nc(Nc2ncc(C(=O)Nc3c(C)cccc3Cl)s2)cc(N2CCN(CCO)CC2)n1 [Dasatinib] (partner 0.075 µM)
201T; first compound 0.08 µM
  relative viability: 0.637
201T; first compound 0.253 µM
  relative viability: 0.599
201T; first compound 0.8 µM
  relative viability: 0.355
201T; first compound 2.53 µM
  relative viability: 0.521
201T; first compound 8 µM
  relative viability: 0.654
COR-L23; first compound 0.08 µM
  relative viability: 0.564
COR-L23; first compound 0.253 µM
  relative viability: 0.589
COR-L23; first compound 0.8 µM
  relative viability: 0.571
COR-L23; first compound 2.53 µM
  relative viability: 0.58
COR-L23; first compound 8 µM
  relative viability: 0.504
EPLC-272H; first compound 0.08 µM
  relative viability: 0.331
EPLC-272H; first compound 0.253 µM
  relative viability: 0.397
EPLC-272H; first compound 0.8 µM
  relative viability: 0.399
EPLC-272H; first compound 2.53 µM
  relative viability: 0.306
EPLC-272H; first compound 8 µM
  relative viability: 0.347
H3255; first compound 0.08 µM
  relative viability: 0.334
H3255; first compound 0.253 µM
  relative viability: 0.288
H3255; first compound 0.8 µM
  relative viability: 0.363
H3255; first compound 2.53 µM
  relative viability: 0.342
H3255; first compound 8 µM
  relative viability: 0.556
HCC-15; first compound 0.08 µM
  relative viability: 0.606
HCC-15; first compound 0.253 µM
  relative viability: 0.733
HCC-15; first compound 0.8 µM
  relative viability: 0.546
HCC-15; first compound 2.53 µM
  relative viability: 0.563
HCC-15; first compound 8 µM
  relative viability: 0.659
LOU-NH91; first compound 0.08 µM
  relative viability: 0.589
LOU-NH91; first compound 0.253 µM
  relative viability: 0.558
LOU-NH91; first compound 0.8 µM
  relative viability: 0.523
LOU-NH91; first compound 2.53 µM
  relative viability: 0.519
LOU-NH91; first compound 8 µM
  relative viability: 0.559
NCI-H1563; first compound 0.08 µM
  relative viability: 0.473
NCI-H1563; first compound 0.253 µM
  relative viability: 0.454
NCI-H1563; first compound 0.8 µM
  relative viability: 0.437
NCI-H1563; first compound 2.53 µM
  relative viability: 0.366
NCI-H1563; first compound 8 µM
  relative viability: 0.467
NCI-H1650; first compound 0.08 µM
  relative viability: 0.327
NCI-H1650; first compound 0.253 µM
  relative viability: 0.339
NCI-H1650; first compound 0.8 µM
  relative viability: 0.259
NCI-H1650; first compound 2.53 µM
  relative viability: 0.241
NCI-H1650; first compound 8 µM
  relative viability: 0.267
NCI-H1734; first compound 0.08 µM
  relative viability: 0.469
NCI-H1734; first compound 0.253 µM
  relative viability: 0.49
NCI-H1734; first compound 0.8 µM
  relative viability: 0.503
NCI-H1734; first compound 8 µM
  relative viability: 0.513
NCI-H1793; first compound 0.08 µM
  relative viability: 0.379
NCI-H1793; first compound 0.253 µM
  relative viability: 0.441
NCI-H1793; first compound 0.8 µM
  relative viability: 0.335
NCI-H1793; first compound 2.53 µM
  relative viability: 0.379
NCI-H1793; first compound 8 µM
  relative viability: 0.386
NCI-H2023; first compound 0.08 µM
  relative viability: 0.537
NCI-H2023; first compound 0.253 µM
  relative viability: 0.679
NCI-H2023; first compound 0.8 µM
  relative viability: 0.498
NCI-H2023; first compound 2.53 µM
  relative viability: 0.48
NCI-H2023; first compound 8 µM
  relative viability: 0.405
NCI-H2170; first compound 0.08 µM
  relative viability: 0.494
NCI-H2170; first compound 0.253 µM
  relative viability: 0.571
NCI-H2170; first compound 0.8 µM
  relative viability: 0.611
NCI-H2170; first compound 2.53 µM
  relative viability: 0.477
NCI-H2170; first compound 8 µM
  relative viability: 0.564
NCI-H2347; first compound 0.08 µM
  relative viability: 0.298
NCI-H2347; first compound 0.253 µM
  relative viability: 0.286
NCI-H2347; first compound 0.8 µM
  relative viability: 0.296
NCI-H2347; first compound 2.53 µM
  relative viability: 0.304
NCI-H2347; first compound 8 µM
  relative viability: 0.298
NCI-H2405; first compound 0.08 µM
  relative viability: 0.183
NCI-H2405; first compound 0.253 µM
  relative viability: 0.194
NCI-H2405; first compound 0.8 µM
  relative viability: 0.192
NCI-H2405; first compound 2.53 µM
  relative viability: 0.179
NCI-H2405; first compound 8 µM
  relative viability: 0.209
NCI-H3122; first compound 0.08 µM
  relative viability: 0.79
NCI-H3122; first compound 0.253 µM
  relative viability: 0.787
NCI-H3122; first compound 0.8 µM
  relative viability: 0.784
NCI-H3122; first compound 2.53 µM
  relative viability: 0.828
NCI-H3122; first compound 8 µM
  relative viability: 0.929
NCI-H322M; first compound 0.08 µM
  relative viability: 0.251
NCI-H322M; first compound 0.253 µM
  relative viability: 0.262
NCI-H322M; first compound 0.8 µM
  relative viability: 0.249
NCI-H322M; first compound 2.53 µM
  relative viability: 0.253
NCI-H322M; first compound 8 µM
  relative viability: 0.279
NCI-H441; first compound 0.08 µM
  relative viability: 0.599
NCI-H441; first compound 0.253 µM
  relative viability: 0.586
NCI-H441; first compound 0.8 µM
  relative viability: 0.7
NCI-H441; first compound 2.53 µM
  relative viability: 0.502
NCI-H441; first compound 8 µM
  relative viability: 0.658
NCI-H520; first compound 0.08 µM
  relative viability: 0.181
NCI-H520; first compound 0.253 µM
  relative viability: 0.258
NCI-H520; first compound 0.8 µM
  relative viability: 0.194
NCI-H520; first compound 2.53 µM
  relative viability: 0.172
NCI-H520; first compound 8 µM
  relative viability: 0.213
NCI-H647; first compound 0.08 µM
  relative viability: 0.128
NCI-H647; first compound 0.253 µM
  relative viability: 0.205
NCI-H647; first compound 0.8 µM
  relative viability: 0.208
NCI-H647; first compound 2.53 µM
  relative viability: 0.123
NCI-H647; first compound 8 µM
  relative viability: 0.155
PC-14; first compound 0.08 µM
  relative viability: 0.225
PC-14; first compound 0.253 µM
  relative viability: 0.217
PC-14; first compound 0.8 µM
  relative viability: 0.225
PC-14; first compound 2.53 µM
  relative viability: 0.175
PC-14; first compound 8 µM
  relative viability: 0.253
SW 900; first compound 0.08 µM
  relative viability: 0.503
SW 900; first compound 0.253 µM
  relative viability: 0.919
SW 900; first compound 0.8 µM
  relative viability: 0.352
SW 900; first compound 2.53 µM
  relative viability: 0.44
SW 900; first compound 8 µM
  relative viability: 0.538
UMC-11; first compound 0.08 µM
  relative viability: 0.537
UMC-11; first compound 0.253 µM
  relative viability: 0.591
UMC-11; first compound 0.8 µM
  relative viability: 0.535
UMC-11; first compound 2.53 µM
  relative viability: 0.433
UMC-11; first compound 8 µM
  relative viability: 0.752
